{"source": "patent US8883227B2", "about": "“Plant pathogen inhibitor combinations and methods of use” (priority 2009, dated 2014)", "assay_type_in_all_cases": "in vivo", "key": {"Bremia lactucae": {"test_system": "Bremia lactucae", "experiment": "Lettuce downy mildew test on cotyledons", "method": "Synergy between MBI-106 and acibenzolar-S-methyl or mefenoxam which control a specific class of pathogens Oomycetes was tested with lettuce downy mildew following Su et al. (2004).\nTo prepare inoculum of downy mildew, lettuce seeds were placed on […] petri-dishes with about 20-30 seeds in each and watered with sterile water, then supplied with ½ strength of Hoagland's solution after germination. The petri dishes were placed at 20° C. growth chamber for 7-10 days. The spores of Bremia lactucae was inoculated on lettuce cotyledons and cultured for 7-10 days at 15° C. for sporulation to occur. Cotyledons with sporulation were cut off and placed in a falcon tube with sterile water. The cotyledons were vortexed for 15 seconds three times and filtered through a 100-uμm mesh to collect sporangia. The solution was adjusted to 0.5 to 1.0×10^5 spores/ml for inoculation.\nFour test plants were seeded in each 2-in pots and then placed at 20° C. for 7-10 days to grow cotyledons. Plants were ready for test when the first true leaf was emerging.\nThe lettuce plants were treated with the materials and left to dry or overnight. Then the plants were inoculated with sporangial solution. The treatments were arranged in a randomized complete block design with four replicates. The inoculated plants were placed in darkness in growth chamber for 48 hours and then incubated under 12-h light period at 15° C. Eight to ten days after inoculation, the cotyledons were rated for disease severity (percentage area covered with sporangiophores)."}, "Sphaerotheca fuliginea": {"test_system": "Sphaerotheca fuliginea", "experiment": "Greenhouse cucumber powdery mildew test, foliar spray alone or in tank mix", "method": "The studies were conducted in a green house. Experimental design of the studies for synergism followed the Burpee and Latin (2008). Powdery mildew, caused by Sphaerotheca fuliginea, was used for investigating the efficacy of the treatments.\nCucumber seeds cv. “SMR 58” (Irwin & Sons Ag Supply, Inc. Cheshire, Oreg.) were grown in plastic 4-inch pots with potting soil mix (Rod McLellan Company, Marysville, Ohio). The plants were treated at 2-true leaf stage. The compounds at various rates were sprayed with a 2-oz mist sprayer at 2 ml per plant at upper side and 1 ml at lower side of the leaves. The treated plants were left for 3-4 hours under florescent light to dry before inoculation.\nA conidia suspension of Sphaerotheca fuliginea, the causal agent of powdery mildew disease on cucumber, was prepared by cutting diseases leaves of the cucumber plants that are served for conservation of inoculum. The suspension were adjusted to 2.0×10^5 conidia per ml and applied with a 2-oz mist sprayer at 2 ml per plant on the upper side of the leaves. The inoculated plants were placed in a greenhouse and the treatments were arranged in randomized complete blocks with 4 to 6 replicates at 25° C. to 30° C.\nThe disease severity (percentage area covered with colonies) of the first leaves were rated according to James (1971). Disease severity and percentage control were analyzed with analysis of variance (ANOVA) and means of the treatments were compared with Fisher's Protected Least Difference (LSD) at p=0.05 level. Synergetic effect was calculated and analyzed with Limpel's formula (Limpel et al., 1962; Richer, 1987)."}, "Rhizoctonia solani": {"test_system": "Rhizoctonia solani", "experiment": "Soybean seed treatment (seed coating) in infested soil, damping off", "settings": "inoculated", "method": "The experiments described below were conducted with soybean but similar procedures are used with other crops such as cereals, corn, cotton, and potatoes.\nThe experiments were conducted in a greenhouse following the procedure developed by Hwang et al. (2006). The isolate of Rhizoctonia solani was grown on potato dextrose agar plates and cultured for 5 days for inoculating oat or wheat grain. One liter of grain was soaked overnight at room temperature (25° C.) and rinsed three times with tape water. The 8×12-in autoclave bags were filled with the grain up to ⅓ full were autoclaved at 121° C. for 15 min. The autoclaved grain then was then inoculated with 5 pieces of 1×1 cm plug of the 5-day culture of R. solani per bag and cultured for 5 days at room temperature (25° C.). The bags were left open in laminar flow hood to let the grain completely dry.\nThe blank seed sample of 10 g to be coated was placed in a flask. Coating agent SEPIRET® 1171-O (Becker Underwood Ltd., Ames, Iowa) was put into the flasks together with the compound of interest, and the flask was shaken vigorously so that the seed picked up the compound. The procedure was repeated with fresh seed sample of cvs. “White Lion” (Kitazawa Seed Co., Oakland, Calif.) or “Viking 2265” (Johnny's Selected Seeds, Winslow, Me.) in the same flask for the treatments. After the seeds were coated, they were left to air dry before planting.\nTo prepare the soil, five hundred milliliters of the dried grains with inoculum were blended for 15 seconds three times and the powder was mixed with sterile sand at 1:1 (v/v) to dilute the inoculum. The sand mix was further used to prepare soil mix at various proportions 1:350 to 1:800 (inoculum:soil) for soybean to generate various disease levels in repeated tests.\nThe coated seeds were planted in the pots with infested soil. There were three replicates of each treatment which were arranged in a complete randomized block design and placed at 25 to 30° C. in a greenhouse.\nAfter 10 to 20 days, depending on disease pressure and temperature, emergence of each treatment was rated and compared. Biomass was measured by weighing the above-ground portion which was measured for each replicate of the plant material."}, "[1]": {"settings": "Example VII, mefenoxam 37.5 ug/ml alone"}, "[2]": {"settings": "Example VII, mefenoxam 75 ug/ml alone"}, "[3]": {"settings": "Example VII, mefenoxam 150 ug/ml alone"}, "[4]": {"settings": "Example V, triflumizole 0.25 ug/ml alone"}, "[5]": {"settings": "Example V, triflumizole 0.5 ug/ml alone"}, "[6]": {"settings": "Example V, triflumizole 1.0 ug/ml alone"}, "[7]": {"settings": "Example IX, fludioxonil 0.0596 g ai/kg alone"}, "[8]": {"settings": "Example IV, azoxystrobin 0.25 ug/ml alone"}, "[9]": {"settings": "Example IV, azoxystrobin 0.5 ug/ml alone"}, "[10]": {"settings": "Example IV, azoxystrobin 1.0 ug/ml alone"}, "[11]": {"settings": "Example IV, azoxystrobin 5.0 ug/ml alone"}, "[12]": {"settings": "Example IV, azoxystrobin 10.0 ug/ml alone"}, "[13]": {"settings": "Example XI (Test II), azoxystrobin 0.1 ug/ml alone"}, "[14]": {"settings": "Example XI (Test II), azoxystrobin 0.25 ug/ml alone"}, "[15]": {"settings": "Example XI (Test II), azoxystrobin 0.5 ug/ml alone"}, "[16]": {"settings": "Example VIII, azoxystrobin 0.0298 g/kg alone"}, "[17]": {"settings": "Example X, propiconazole 1.0 ug/ml alone"}, "[18]": {"settings": "Example VI, acibenzolar-S-methyl 25 ug/ml alone"}, "[19]": {"settings": "Example III, quinoxyfen 0.01 ug/ml alone"}, "[20]": {"settings": "Example III, quinoxyfen 0.05 ug/ml alone"}, "[21]": {"settings": "Example I, myclobutanil 0.05 ug/ml alone"}, "[22]": {"settings": "Example I, myclobutanil 0.1 ug/ml alone"}, "[23]": {"settings": "Example I, myclobutanil 0.25 ug/ml alone"}, "[24]": {"settings": "Example II (repeated test), myclobutanil 0.05 ug/ml alone"}, "[25]": {"settings": "Example II (repeated test), myclobutanil 0.1 ug/ml alone"}, "[26]": {"settings": "Example II (repeated test), myclobutanil 0.25 ug/ml alone"}}}
{"smiles": "COCC(=O)N(c1c(C)cccc1C)[C@H](C)C(=O)OC", "note": "[mefenoxam]", "values": [{"measurement": "Control (%)", "setting": "Bremia lactucae; [1]", "result": "−2.6", "unit": "%"}, {"measurement": "Severity (%)", "setting": "Bremia lactucae; [1]", "result": 89.3, "unit": "%"}, {"measurement": "Control (%)", "setting": "Bremia lactucae; [2]", "result": 37.7, "unit": "%"}, {"measurement": "Severity (%)", "setting": "Bremia lactucae; [2]", "result": 54.2, "unit": "%"}, {"measurement": "Control (%)", "setting": "Bremia lactucae; [3]", "result": 48.5, "unit": "%"}, {"measurement": "Severity (%)", "setting": "Bremia lactucae; [3]", "result": 44.8, "unit": "%"}]}
{"smiles": "CCCOC/C(=N\\c1ccc(Cl)cc1C(F)(F)F)n1ccnc1", "note": "[triflumizole]", "values": [{"measurement": "Control (%)", "setting": "Sphaerotheca fuliginea; [4]", "result": 2.6, "unit": "%"}, {"measurement": "Severity (%)", "setting": "Sphaerotheca fuliginea; [4]", "result": 95.0, "unit": "%"}, {"measurement": "Control (%)", "setting": "Sphaerotheca fuliginea; [5]", "result": 11.5, "unit": "%"}, {"measurement": "Severity (%)", "setting": "Sphaerotheca fuliginea; [5]", "result": 86.3, "unit": "%"}, {"measurement": "Control (%)", "setting": "Sphaerotheca fuliginea; [6]", "result": 20.5, "unit": "%"}, {"measurement": "Severity (%)", "setting": "Sphaerotheca fuliginea; [6]", "result": 77.5, "unit": "%"}]}
{"smiles": "N#Cc1c[nH]cc1-c1cccc2c1OC(F)(F)O2", "note": "[fludioxonil]", "values": [{"measurement": "Bio mass", "setting": "Rhizoctonia solani; [7]", "result": 8.7, "unit": "g"}, {"measurement": "Control (%)", "setting": "Rhizoctonia solani; [7]", "result": 28.4, "unit": "%"}, {"measurement": "Emergence (%)", "setting": "Rhizoctonia solani; [7]", "result": 35.8, "unit": "%"}]}
{"smiles": "CO/C=C(/C(=O)OC)c1ccccc1Oc1cc(Oc2ccccc2C#N)ncn1", "note": "[azoxystrobin]", "values": [{"measurement": "Control (%)", "setting": "Sphaerotheca fuliginea; [8]", "result": 51.8, "unit": "%"}, {"measurement": "Severity (%)", "setting": "Sphaerotheca fuliginea; [8]", "result": 45.0, "unit": "%"}, {"measurement": "Control (%)", "setting": "Sphaerotheca fuliginea; [9]", "result": 48.0, "unit": "%"}, {"measurement": "Severity (%)", "setting": "Sphaerotheca fuliginea; [9]", "result": 48.8, "unit": "%"}, {"measurement": "Control (%)", "setting": "Sphaerotheca fuliginea; [10]", "result": 68.1, "unit": "%"}, {"measurement": "Severity (%)", "setting": "Sphaerotheca fuliginea; [10]", "result": 30.0, "unit": "%"}, {"measurement": "Control (%)", "setting": "Sphaerotheca fuliginea; [11]", "result": 94.3, "unit": "%"}, {"measurement": "Severity (%)", "setting": "Sphaerotheca fuliginea; [11]", "result": 5.3, "unit": "%"}, {"measurement": "Control (%)", "setting": "Sphaerotheca fuliginea; [12]", "result": 87.6, "unit": "%"}, {"measurement": "Severity (%)", "setting": "Sphaerotheca fuliginea; [12]", "result": 11.3, "unit": "%"}, {"measurement": "Control (%)", "setting": "Sphaerotheca fuliginea; [13]", "result": 21.6, "unit": "%"}, {"measurement": "Severity (%)", "setting": "Sphaerotheca fuliginea; [13]", "result": 72.5, "unit": "%"}, {"measurement": "Control (%)", "setting": "Sphaerotheca fuliginea; [14]", "result": 13.5, "unit": "%"}, {"measurement": "Severity (%)", "setting": "Sphaerotheca fuliginea; [14]", "result": 80.0, "unit": "%"}, {"measurement": "Control (%)", "setting": "Sphaerotheca fuliginea; [15]", "result": 62.2, "unit": "%"}, {"measurement": "Severity (%)", "setting": "Sphaerotheca fuliginea; [15]", "result": 35.0, "unit": "%"}, {"measurement": "Control (%)", "setting": "Rhizoctonia solani; [16]", "result": 81.5, "unit": "%"}, {"measurement": "Emergence (%)", "setting": "Rhizoctonia solani; [16]", "result": 86.4, "unit": "%"}]}
{"smiles": "CCCC1COC(Cn2cncn2)(c2ccc(Cl)cc2Cl)O1", "note": "(centres unmarked) [propiconazole]", "values": [{"measurement": "Control (%)", "setting": "Sphaerotheca fuliginea; [17]", "result": 1.3, "unit": "%"}, {"measurement": "Severity (%)", "setting": "Sphaerotheca fuliginea; [17]", "result": 97.5, "unit": "%"}]}
{"smiles": "CSC(=O)c1cccc2nnsc12", "note": "[acibenzolar-S-methyl]", "values": [{"measurement": "Control (%)", "setting": "Bremia lactucae; [18]", "result": 23.4, "unit": "%"}, {"measurement": "Severity (%)", "setting": "Bremia lactucae; [18]", "result": 68.9, "unit": "%"}]}
{"smiles": "Fc1ccc(Oc2ccnc3cc(Cl)cc(Cl)c23)cc1", "note": "[quinoxyfen, 5,7-dichloro-4-quinolyl 4-fluorophenyl ether]", "values": [{"measurement": "Control (%)", "setting": "Sphaerotheca fuliginea; [19]", "result": 1.33, "unit": "%"}, {"measurement": "Severity (%)", "setting": "Sphaerotheca fuliginea; [19]", "result": 90.0, "unit": "%"}, {"measurement": "Control (%)", "setting": "Sphaerotheca fuliginea; [20]", "result": 66.95, "unit": "%"}, {"measurement": "Severity (%)", "setting": "Sphaerotheca fuliginea; [20]", "result": 30.0, "unit": "%"}]}
{"smiles": "CCCCC(C#N)(Cn1cncn1)c1ccc(Cl)cc1", "note": "(centres unmarked) [myclobutanil]", "values": [{"measurement": "Control (%)", "setting": "Sphaerotheca fuliginea; [21]", "result": 2.5, "unit": "%"}, {"measurement": "Severity (%)", "setting": "Sphaerotheca fuliginea; [21]", "result": 95.8, "unit": "%"}, {"measurement": "Control (%)", "setting": "Sphaerotheca fuliginea; [22]", "result": 3.2, "unit": "%"}, {"measurement": "Severity (%)", "setting": "Sphaerotheca fuliginea; [22]", "result": 95.0, "unit": "%"}, {"measurement": "Control (%)", "setting": "Sphaerotheca fuliginea; [23]", "result": 83.1, "unit": "%"}, {"measurement": "Severity (%)", "setting": "Sphaerotheca fuliginea; [23]", "result": 16.7, "unit": "%"}, {"measurement": "Control (%)", "setting": "Sphaerotheca fuliginea; [24]", "result": "−2.8", "unit": "%"}, {"measurement": "Severity (%)", "setting": "Sphaerotheca fuliginea; [24]", "result": 93.8, "unit": "%"}, {"measurement": "Control (%)", "setting": "Sphaerotheca fuliginea; [25]", "result": 12.2, "unit": "%"}, {"measurement": "Severity (%)", "setting": "Sphaerotheca fuliginea; [25]", "result": 80.0, "unit": "%"}, {"measurement": "Control (%)", "setting": "Sphaerotheca fuliginea; [26]", "result": 41.3, "unit": "%"}, {"measurement": "Severity (%)", "setting": "Sphaerotheca fuliginea; [26]", "result": 53.8, "unit": "%"}]}
